“Also recorded” adds a separate entry of the source. Where no end group is shown, it is not given here.
Key:
[1] = test system: Spodoptera litura early third-instar larvae; assay: Microinjection bioassay of insecticidal activity in Spodoptera litura third-instar larvae; format: in vivo; conditions: for LD50: S. litura larvae, 50% mortality at 24 hours post-injection; for insecticidal activity (in words): S. litura third instar larvae
Method: Due to the small amounts of material involved, bioassays are realized on a microscale, using a microinjection technique as described below. Drosophila melanogaster was used first as an insect model since it is amenable to injection of volumes of 50 nl volumes or less, and is very sensitive to spider toxins. In order to confirm activity against an economically important crop pest, Spodoptera litura early third-instar larvae were also used. S. litura is a highly polyphagous species, and is considered an international pest on cotton, tobacco, tomato, cabbage, cauliflower, peanuts, beans and other plants. However, S. litura is more resistant to toxins than D. melanogaster, and it requires injection of 10 to 100-fold higher doses. Application of the microinjection technique to S. litura larvae enabled its use as a test insect while lowering the amounts of sample used in the bioassays. In particular, early 3rd instar larvae (3 to 5 mg) can be injected successfully with volumes up to 800 nl of toxin composition. Lethal and paralytic activity of may be evaluated using D. melanogaster adult flies (˜0.7 mg/fly) and S. litura early third-instar larvae (5-8 mg/larva). See Escoubas, P., Pahna, H. F., Nakajima, T. (1995), “A Microinjection technique using Drosophila melanogaster for bioassay-guided isolation of neurotoxins in arthropod venoms”, Toxicon, 33(12), 1549-1555.
To perform the bioassay of SV toxin peptides, SV toxin peptides are injected into the dorsolateral area of Drosophila melanogaster adult flies or into the pronotum of 3rd instar Spodoptera litura larvae using a glass micropipette mounted on an automatic microinjector (A203XVY Nanoliter injector, WPI Precision Instruments, Sarasota, Fla., USA). Flies and larvae are examined five seconds after injection for evidence of involuntary contraction of body segments.

mice = assay: Intracerebroventricular injection in mice; format: in vivo, mice (C57B16); conditions: ICV injection, 2 micrograms per mouse
Method: Intracerebroventricular injections (0.1 111 crude venom-equivalent in 5 μl of 20 mg/ml BSA and 9 mg/ml NaCl) of each toxin were also performed on 20 g male mice (C57B16).

PaspI (GCLGEGEKCADWSGPSCCDGFYCSCRSMPYCRCRNNS-NH2; disulfide (positions not given here); also: four disulfide bridges, pairing not given here)
LD50 ([1]; injection): not significantly different from the LD50 measured for toxin AaIT
LD50 ([1]; injection, listed as PaspI-NH2): 9.7+4.1 μg/g
insecticidal activity (in words) ([1]; injection): most potent toxin towards S. litura; also recorded: greatest degree of insecticidal activity

PaspII (ACVGDGQRCASWSGPYCCDGYYCSCRSMPYCRCRNNS; disulfide (positions not given here); also: four disulfide bridges, pairing not given here)
insecticidal activity (in words) ([1]; injection): insecticidal activity
toxic effect on mice (mice): did have a toxic effect

PaspIII (ADCLNEGDWCADWSGPSCCGEMWCSCPGFGKCRCKK; disulfide (positions not given here); also: four disulfide bridges, pairing not given here)
insecticidal activity (in words) ([1]; injection): insecticidal activity

PaspIV (ACATKNQRCASWAGPYCCDGFYCSCRSYPGCMCRPNS; disulfide (positions not given here); also: four disulfide bridges, pairing not given here)
insecticidal activity (in words) ([1]; injection): insecticidal activity; also recorded: putatively least potent

XacI (ECIGGGGGCSVFSGPSCCGGTCKCKFVLIFPKGCHCT)
paralysis of larvae ([1]; isolated peptide, injection, assay procedure of Example 3): instantaneous paralysis
time to some signs of recovery of treated larvae post-injection ([1]; possibly low injection dose, below the LD50): 8 to 12 h

From patent US20020197689A1, “Insecticidal peptides and methods for use of same” (priority 2000, published 2002)
